Holding throughout (experiment): NCI-60 cell line screen, 48 h
Assay [1] concerns BT-549 breast.
The subject of assay [2] is NCI/ADR-RES ovarian.
The subject of assay [3] is PC-3 prostate.
For assay [4], the system named is T-47D breast.

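Five compound concentrations were applied to cells in 96-well plates for 48 hours; endpoints were derived by simple linear interpolation of the resulting dose-response curve. Here, GI50 denotes the concentration required for 50% inhibition of growth. At the TGI there is no net growth.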

As to `COc1cc(/C=C/c2cc(C(F)(F)F)[nH]c(=O)n2)ccc1OCc1ccccc1F`, the GI50 in assay [1] was 5.04 µM; in assay [2], 14.7 µM; in assay [3] it was 9.06 µM; in assay [4], 9.98 µM. The TGI in assay [1] is 20.6 µM; in assay [2] it was more than 100 µM; in assay [3], 29 µM; in assay [4], 63.1 µM.

For `CCOc1ccc(/C=C/C(=O)c2ccccc2)cc1`, the GI50 in assay [1] is 26.4 µM; in assay [2] it was 18.3 µM; in assay [3] it was 23.9 µM; in assay [4], 14.2 µM. For the same molecule, the TGI turned out to be 62 µM in assay [1], 56.3 µM in assay [2], 61.4 µM in assay [3] and 48.7 µM in assay [4].

`O=C(Nc1ccccc1C(F)(F)F)c1cccc(NC2=C(Cl)C(=O)N(Cc3ccccc3)C2=O)c1`: the GI50 in assay [1] is 8.25 µM; in assay [2], 9.14 µM; in assay [3] it was 8.78 µM; in assay [4] it was 62.7 µM. For the same molecule, the TGI in assay [1] was 45.1 µM; in assay [2], 40.7 µM; in assay [3], more than 53 µM; in assay [4] it was more than 100 µM.

For the molecule `CC(=O)CC1CCC(=O)CCC(=O)OC(CC(C)=O)CCC(=O)CCC(=O)O1` (stereo not given), the TGI in assay [1], in assay [2], in assay [3] and in assay [4] was more than 100 µM in each case.

For `Cc1nn(C(=O)c2ccccc2O)c2c1C(c1ccccc1)SC(N)=N2` (stereo not given), the TGI in assay [1], in assay [2], in assay [3] and in assay [4] was more than 10 µM in each case.

`COc1cc(OC)c(/C=C/c2ccc3ccccc3[n+]2C)c(OC)c1`: the GI50 in assay [1] is 0.401 µM; in assay [2], more than 66.4 µM; in assay [3] it was 1.82 µM; in assay [4], 0.294 µM. Also, the TGI is 7.3 µM in assay [1], more than 100 µM in assay [2], 17.3 µM in assay [3] and 2.83 µM in assay [4].

Consider `Cc1c(CCCl)c(=O)n2c([nH]c3ccccc32)c1C#N`, for which the TGI in assay [1] is 3.63 µM; in assay [2], 2.7 µM; in assay [3], 2.82 µM; in assay [4] it was 2.97 µM.

Take `C=CC(=O)N1CCCC(n2nc(-c3ccc(Oc4ccccc4)cc3)c3c(N)ncnc32)C1` (stereo not given): the GI50 in assay [1] was 5.85 µM; in assay [2], 4.27 µM; in assay [3], 10 µM; in assay [4] it was 2.14 µM. In addition, the TGI in assay [1] turned out to be 18.5 µM; in assay [2] it was 34.8 µM; in assay [3] it was 24.2 µM; in assay [4] it was 18.6 µM.

In the case of `CC1=CSC2=NC(c3ccc(Cl)c(Cl)c3)=CC(c3ccc(Cl)cc3)N12` (stereo not given), the GI50 in assay [1], in assay [2], in assay [3] and in assay [4] was more than 100 µM throughout. Also, the TGI in assay [1], in assay [2], in assay [3] and in assay [4] was more than 100 µM in each case.

`COc1cc([C@H](C)c2ccc3ccccc3c2)cc(OC)c1OC`: the GI50 is 0.848 µM in assay [1], 0.145 µM in assay [2], 0.346 µM in assay [3] and 0.626 µM in assay [4]. Moreover, the TGI was 18.4 µM in assay [1], more than 100 µM in assay [2], more than 100 µM in assay [3] and more than 100 µM in assay [4].

Consider `COC(=O)CCC/C=C\C[C@H]1C=CC(=O)/C1=C/C[C@@H](O)CCc1cccc(C(F)(F)F)c1`, for which the GI50 is 2.68 µM in assay [1], 2.81 µM in assay [2], 2.63 µM in assay [3] and 3.45 µM in assay [4]. The TGI in assay [1] was 9.25 µM; in assay [2] it was 10.9 µM; in assay [3], 7.6 µM; in assay [4] it was 17 µM.

As for `S=C(Nc1ccc(-c2nc3ccccc3[nH]2)cc1)NC1CCCCC1`, the GI50 in assay [1] is 21.7 µM; in assay [2], 28.6 µM; in assay [3], 36.6 µM; in assay [4], 27 µM. For the same molecule, the TGI came out at 60.3 µM in assay [1] and 82.2 µM in assay [2].

`Nc1nc(-c2cccc([N+](=O)[O-])c2)c(Br)c(=O)[nH]1`: the TGI was more than 63 µM in assay [1], more than 100 µM in assay [2], more than 100 µM in assay [3] and more than 100 µM in assay [4].

On to `CCOC(=O)[C@@H](C)C[C@H](Cc1ccccc1)NC(=O)c1csc([C@@H](C[C@H](C(C)C)N(C)C(=O)[C@@H](NC(=O)[C@H]2C[C@H](O[Si](C)(C)C(C)(C)C)CCN2C)C(C)C)OC(C)=O)n1`, for which the GI50 was 0.285 µM in assay [1], 1.29 µM in assay [2], 0.22 µM in assay [3] and 0.297 µM in assay [4]. Moreover, the TGI is 2.53 µM in assay [1], 5.03 µM in assay [2], more than 8.33 µM in assay [3] and more than 8.33 µM in assay [4].

Turning to `CC(C)c1ccc(Cc2cnc(NC(=O)c3cc(Br)cs3)s2)cc1`, the GI50 in assay [1] is 3.81 µM; in assay [2], 1.73 µM; in assay [3], 2.23 µM; in assay [4] it was 4.27 µM. Moreover, the TGI was more than 100 µM in assay [1], 5.31 µM in assay [2], more than 100 µM in assay [3] and more than 100 µM in assay [4].

In the case of `CC(=O)NC1=N/C(=C/c2cc([N+](=O)[O-])ccc2O)CN1C`, the TGI in assay [1], in assay [2], in assay [3] and in assay [4] was more than 100 µM each time.

Turning to `Clc1nc(Oc2ccccc2)nc(-c2cn(-c3ccccc3)c3ccccc23)n1`, the GI50 in assay [1] is 17 µM; in assay [2] it was 17.8 µM; in assay [3], 5.03 µM; in assay [4], 8.58 µM. The TGI is 35.6 µM in assay [1], 34.9 µM in assay [2], 19.3 µM in assay [3] and 29.5 µM in assay [4].

As for `CC1(C)C2CC(c3ccncc3)ON2C(C)(C)N1O` (stereo not given), the TGI in assay [2], in assay [3] and in assay [4] was more than 100 µM throughout.

With `COc1cc2nc(-c3ccc(C(F)(F)F)cc3)cc(OCCCN3CCOCC3)c2cc1OC`, the GI50 in assay [1] was 5 µM; in assay [2] it was 0.64 µM; in assay [3] it was 2.19 µM; in assay [4], 0.654 µM. Also, the TGI amounted to 20.9 µM in assay [1], 22.7 µM in assay [2], 16.5 µM in assay [3] and 23.8 µM in assay [4].

The record behind these values is PubChem BioAssay (NCI).
